{"source": "patent US20020165149A1", "about": "“Mutated class II major histocompatibility proteins” (priority 2000, published 2002)", "key": {"I-A^g7": {"system": "I-A^g7", "sequence (as listed by the source)": "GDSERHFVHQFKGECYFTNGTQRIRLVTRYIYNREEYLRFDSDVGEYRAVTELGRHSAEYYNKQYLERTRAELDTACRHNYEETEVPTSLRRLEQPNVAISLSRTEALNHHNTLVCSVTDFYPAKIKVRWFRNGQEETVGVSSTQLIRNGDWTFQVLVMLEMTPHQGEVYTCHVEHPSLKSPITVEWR", "sequence (P04228 24-256)": "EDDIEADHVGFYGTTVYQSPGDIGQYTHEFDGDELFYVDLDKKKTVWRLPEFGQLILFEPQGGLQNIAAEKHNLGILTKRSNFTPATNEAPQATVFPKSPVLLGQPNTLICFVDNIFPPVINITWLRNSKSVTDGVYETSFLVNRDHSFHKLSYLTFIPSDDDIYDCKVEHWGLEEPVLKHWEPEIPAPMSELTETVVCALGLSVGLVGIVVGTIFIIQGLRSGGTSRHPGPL", "test": "Direct binding of biotinylated peptide to L-cells transfected with I-A^g7 (flow cytometry)", "design": "species or system murine", "conditions": "3 hours at 37° C., pH 6; streptavidin-PE detection"}, "I-A^g7-negative L-cells": {"system": "I-A^g7-negative L-cells", "conditions": "peptide 1.6 μM-50 μM, 3 hours at 37° C., pH 6", "protocol": "FIG. 13 is a binding curve showing I-A^g7-positive L-cell binding to titrated amounts of B-1040-63 peptide (1.6 μM-50 μM)."}}, "note": "Like-named read-outs stand apart in the source and are kept apart here. No end group written: not given here. *: point of attachment. Biotin = O=C1N[C@H]2[C@H](CS[C@H]2CCCCC(=O)*)N1"}
{"substance": "Biotin-RTRPLWVRME [Mut B-1040-63]", "values": [{"measurement": "binding to L cells transfected with IA^g7", "setting": "I-A^g7", "result": "bind specifically"}, {"measurement": "binding to untransfected (I-A^g7-negative) L cells", "setting": "I-A^g7-negative L-cells", "result": "does not bind"}, {"measurement": "binding to untransfected (I-A^g7-negative) L cells", "setting": "I-A^g7-negative L-cells; listed as B-104-63", "result": "does not occur"}]}
